Earlier results in US20040136904A1, “Dry powder compositions comprising labelled particles for inhalation” (priority 2001, published 2004).

Details: in vivo

time in which 50% is removed from the surface of the lung: ~10 min
Structure (SMILES): [Na+].[O]=[Tc](=[O])(=[O])[O-] [sodium pertechnetate]
